Consider 15 compounds from patent US4771057A, “Reduced pyridyl derivatives with cardiovascular regulating properties” (University of Alberta, priority 1986, dated 1988).

Where two headings read alike, the source gives them in different places.

One assay has as its system calcium channel. Conditions: literature comparison for D-30; cited from earlier work.
In assay [1] the test system is guinea pig ileal longitudinal smooth muscle. The assay can be described thus: Calcium channel agonist testing: contractile response of guinea pig ileal longitudinal smooth muscle, compound given in place of CD. Particulars: for EC50: Cavia porcellus, given in the place of CD, no calcium antagonist added, read-out: effective dose producing 50% of the maximum contractile response. The format is cell-based. The protocol: Calcium channel antagonist activity was determined as the concentration required to produce 50% inhibition of the muscarinic receptor-mediated Ca^2+ -dependent contraction of guinea pig ileal longitudinal smooth muscle assay (C. Triggle, V. Swamy and D. Triggle, Can. J. Physiol. Pharmacol., 1979, 57, 804). Male albino guinea pigs (body weight 300-450 g) were sacrificed by decapitation. The intestine was removed above the ileo-caecal junction. Longitudinal smooth muscle segments of 2 cm length were mounted under a resting tension of 300-400 mg. The segments were maintained at 37° C. in a 10 mL jacketed organ bath containing oxygenated (100% O2) physiological saline solution of the following composition (mM): NaCl: 137; CaCl2 : 2.6; KCl: 5.9; MgCl2 : 1.2; glucose: 11.9; buffered by Hepes-NaOH to pH 7.4. The muscles were equilibrated for 1 h with a solution change every 15 min. Two successive control contractions were elicited at 15 min intervals with 5×10^-7 M cis-2-methyl- 4-dimethylaminomethyl-1,3-dioxolane methiodide (CD). The isometric contractions were recorded with a force displacement transducer (FT 03C) on a GRASS physiograph. The means of the two contractile responses was taken as the 100% value for the tonic (slow) component of the response. The muscle was washed with Hepes saline solution and was allowed to re-equilibrate. The calcium antagonist (test compound) was added ten min before the dose-response for CD was determined. The drug-induced inhibition of contraction was expressed as percent of control. The ID50 values were graphically determined from the concentration-response curves. The test results are shown in Table 7, the compounds testing being compared to Nifedipine (TM).
(§1) A modified protocol, used for testing calcium channel antagonists (vide supra), was used to determine the concentration at which D-30 produced 50% of the maximum contractile response. D-30 was administered in the place of CD and the dose-response curve was determined. A calcium antagonist was not added during the experiment. […] Similarly, the effective dose of the isomeric D-31 producing 50% of the maximum contractile response was 6.6×10^-5 M. Both D-30 and D-31 increased the guinea pig right atria heart rate by 30%.

The next assay concerns guinea pig right atria. As to the kind of experiment: Guinea pig right atria heart rate. It counts as cell-based. How it is done: as §1
The test system of assay [2] is guinea pig ileal longitudinal smooth muscle. As to the kind of experiment: Calcium channel antagonist testing: inhibition of muscarinic receptor-mediated Ca2+-dependent contraction (response to CD) of guinea pig ileal longitudinal smooth muscle. It counts as cell-based. Particulars: for IC50: 50% inhibition of tonic contraction to CD 5×10^-7 M, compound added 10 min before CD, 37° C., pH 7.4, read-out: Calcium channel antagonist act., inhib. act. on contractile response to CD, ID50; for calcium channel antagonist activity, comparison to Nifedipine (TM): conclusion from Table 7. The protocol:
Male albino guinea pigs (body weight 300-450 g) were sacrificed by decapitation. The intestine was removed above the ileo-caecal junction. Longitudinal smooth muscle segments of 2 cm length were mounted under a resting tension of 300-400 mg. […] The muscles were equilibrated for 1 h with a solution change every 15 min. Two successive control contractions were elicited at 15 min intervals with 5×10^-7 M cis-2-methyl- 4-dimethylaminomethyl-1,3-dioxolane methiodide (CD). The isometric contractions were recorded with a force displacement transducer (FT 03C) on a GRASS physiograph. The means of the two contractile responses was taken as the 100% value for the tonic (slow) component of the response. The muscle was washed with Hepes saline solution and was allowed to re-equilibrate. The calcium antagonist (test compound) was added ten min before the dose-response for CD was determined. The drug-induced inhibition of contraction was expressed as percent of control. The ID50 values were graphically determined from the concentration-response curves.

Turning to `COC(=O)C1=C(C)NC(C)=C([N+](=O)[O-])C1c1ccccc1C(F)(F)F` (stereo not drawn) [Bay K 8644], in the assay with calcium channel, the “calcium channel agonist activity of reference compounds” value was “calcium channel agonist which promotes calcium entry into cells”.
Regarding `CCOC(=O)C1=C(C)NC2=C(C(=O)OC2)C1c1ccccc1OC(F)F` (stereo not drawn) [CGP 28392], the “calcium channel agonist activity of reference compounds” value with calcium channel was “calcium channel agonist which promotes calcium entry into cells”.
As for `COC(=O)C1=C(C)NC(C)=C([N+](=O)[O-])C1c1cccnc1` [Compound D-30, methyl 2,6-dimethyl-3-nitro-4-(3'-pyridyl)-1,4-dihydropyridine-5-carboxylate], the EC50 in assay [1] stood at 94 µM. The “calcium channel agonist activity” value in assay [1] (conclusion from contractile response) was “calcium channel agonist which promotes calcium entry into cells”. The muscle contraction result in assay [1] (tested using the calcium channel antagonist testing procedure) is reported as “caused muscle contraction”. Moreover, the “increase of guinea pig right atria heart rate” value in the assay with guinea pig right atria is 30%.
As to `COC(=O)C1=C(C)NC(C)=C([N+](=O)[O-])C1c1ccncc1` [Compound D-31, methyl 2,6-dimethyl-3-nitro-4-(4'-pyridyl)-1,4-dihydropyridine-5-carboxylate], the EC50 in assay [1] is 66 µM. The “increase of guinea pig right atria heart rate” value with guinea pig right atria is reported as 30%.
Regarding `COC(=O)C1=C(C)N(C)C(C)C(C(=O)OC(C)C)=C1c1ccccc1[N+](=O)[O-]` (stereo not drawn) [Compound W-3, 3-Isopropyl-5-methyl 1,2,6-trimethyl-4-(2-nitrophenyl)-1,2-dihydropyridine-3,5-dicarboxylate], the IC50 in assay [2] (Cavia porcellus) was 10.5 µM.
As for `CC1=C(C(=O)OC(C)C)C(c2ccccc2[N+](=O)[O-])=C(C(=O)OC(C)C)C(C)N1C` (stereo not drawn) [Compound W-4, Diisopropyl 1,2,6-trimethyl-4-(2-nitrophenyl)-1,2-dihydropyridine-3,5-dicarboxylate], the IC50 in assay [2] (Cavia porcellus) was 5.73 µM.
Consider “Diethyl 2,6-dimethyl-4-{3'-[N--methoxycarbonyl-1',2'-(1',6'-)dihydropyridyl]}-1,4-dihydropyridine-3,5-dicarboxylate [Compound D-33]”, for which, in assay [2], the IC50 worked out at 0.18 µM and the “calcium channel antagonist activity, comparison to Nifedipine (TM)” value (“calcium channel antagonist activity” below) is “active calcium channel antagonists, being comparable to Nifedipine (TM)”.
For “Diethyl 2,6-dimethyl-4-{3'-[N--phenoxycarbonyl-1',2'-(1',6'-)dihydropyridyl]}-1,4-dihydropyridine-3,5-dicarboxylate [Compound D-37]”, in assay [2], the IC50 was 0.865 µM and the “calcium channel antagonist activity” value is given as “active calcium channel antagonists, being comparable to Nifedipine (TM)”.
Take “Diethyl 2,6-dimethyl-4-{3'-[N--t-butoxycarbonyl-1',2'-(1',6'-)dihydropyridyl]}-1,4-dihydropyridine-3,5-dicarboxylate [Compound D-40]”: in assay [2], the IC50 was determined as 0.672 µM and the “calcium channel antagonist activity” value is “active calcium channel antagonists, being comparable to Nifedipine (TM)”.
For “Diisobutyl 2,6-dimethyl-4-{3'-[N--methoxycarbonyl-1',2'(1',6'-)dihydropyridyl]}-1,4-dihydropyridine-3,5-dicarboxylate [Compound D-35]”, in assay [2], the IC50 amounted to 0.771 µM and the “calcium channel antagonist activity” value is “active calcium channel antagonists, being comparable to Nifedipine (TM)”.
“Diisobutyl 2,6-dimethyl-4-{3'-[N--phenoxycarbonyl-1',2'-(1',6'-)dihydropyridyl]}-1,4-dihydropyridine-3,5-dicarboxylate [Compound D-39]”: the IC50 in assay [2] amounted to 6.46 µM.
For the compound “Diisobutyl 2,6-dimethyl-4-{3'-[N--t-butoxycarbonyl-1',2'-(1',6'-)dihydropyridyl]}-1,4-dihydropyridine-3,5-dicarboxylate [Compound D-42]”, the IC50 in assay [2] came out at 3.42 µM.
For “Diisopropyl 2,6-dimethyl-4-{3'-[N-- phenoxycarbonyl-1',2'-(1',6'-)dihydropyridyl]}-1,4-dihydropyridine-3,5-dicarboxylate [Compound D-38]”, the IC50 in assay [2] worked out at 1.67 µM.
Turning to “Diisopropyl 2,6-dimethyl-4-{3'-[N--methoxycarbonyl-1',2'-(1',6'-)dihydropyridyl]}-1,4-dihydropyridine-3,5-dicarboxylate [Compound D-34]”, in assay [2], the IC50 is 0.131 µM and the “calcium channel antagonist activity” value is “active calcium channel antagonists, being comparable to Nifedipine (TM)”.
For “Dimethyl 2,6-dimethyl-4-{3'-[N--phenoxycarbonyl-1',2'-(1',6'-)dihydropyridyl]}-1,4-dihydropyridine-3,5-dicarboxylate [Compound D-36]”, the IC50 in assay [2] was 3.7 µM.
